One assay deals with T1, ABL1 (Homo sapiens, UniProt P00519).
T1 construct: purchased Carna Biosciences
Put plainly: Luminescence-based ABL kinase assay (ADP-Glo, 300 μM ATP). The class given is biochemical. On the procedure: (§1) Kinase activity of ABL1 was measured using the ADP-Glo system (Promega), which measures formation of ADP using a luminescence-based method. Compounds were serially diluted in DMSO. 20 nL of compound or DMSO only (high control, HC) were added to a 384-well plate (OptiPlate-384, PerkinElmer) using an Echo550 liquid handler (Labcyte). 15 μL of kinase solution (10 mM MgCl2, 0.01% Brij-35, 2 mM DTT, 0.05% BSA, 1 mM EGTA, 50 mM HEPES pH 7.5, and 3.325 nM ABL1 [Carna Biosciences]) were added to each well of the 384-well plate containing the compounds. No enzyme control wells were included (low control, LC). The plate was incubated at room temperature for 30 minutes. 5 μL of a second solution containing 10 mM MgCl2, 0.01% Brij-35, 2 mM DTT, 0.05% BSA, 1 mM EGTA, 50 mM HEPES pH 7.5, 6 μM Peptide 2 (Perkin Elmer, Cat No 760346), and 1.2 mM ATP were added to each well to start the kinase reaction. The plate was incubated for 90 minutes at room temperature. 20 μL of ADP-Glo reagent (Promega) were then added to each well and the plate was incubated for 40 minutes at room temperature. 40 μL of kinase detection reagent (Promega) was added to each well and the plate was incubated for an additional 45 minutes at room temperature. During this step, ADP was converted to ATP, a substrate for luciferase, to produce luminescence signal. Luminescence was measured on an Envision plate reader (Perkin Elmer). Luminescence signal positively correlates with kinase activity. The percent kinase activity was calculated as follows: percent kinase activity=100×(Lumsample−LumLC)/(LumHC−LumLC). As noted above, DMSO only and no enzyme wells were used as high and low controls, respectively. IC50 values were calculated using the XLFit software.

The next assay deals with ABL1 (T315I) (Homo sapiens, UniProt P00519, T315I). Put plainly: Luminescence-based ABL kinase assay (ADP-Glo, 300 μM ATP), T315I mutant. The class given is biochemical. The method, then:
as §1
Background: ADP-Glo first removes unused ATP, then detects ADP through luciferase.

The term IC50 denotes the concentration that inhibits the measured activity by half.

For the molecule `COc1ccccc1-c1c[nH]c2nc(NC(=O)NCCN(C)C)ccc12` [Compound 97, 3-[2-(dimethylamino)ethyl]-1-[3-(2-methoxyphenyl)-1H-pyrrolo[2,3-b]pyridin-6-yl]urea], the IC50 at ABL1 came out at 199 nM; on ABL1 (T315I), 61.6 nM.

For `COc1c(F)cccc1-c1n[nH]c2nc(NC(=O)[C@@H]3C[C@@H]3F)ccc12` [Compound 100, (1S,2S)-2-fluoro-N-(3-(3-fluoro-2-methoxyphenyl)-1H-pyrazolo[3,4-b]pyridin-6-yl)cyclopropane-1-carboxamide], the IC50 on ABL1 is 98.2 nM; on ABL1 (T315I) it was 105 nM.

Consider `COc1ccccc1-c1c[nH]c2nc(NC(=O)NCCC#N)ccc12` [Compound 104, 3-(2-cyanoethyl)-1-[3-(2-methoxyphenyl)-1H-pyrrolo[2,3-b]pyridin-6-yl]urea], for which the half-inhibitory concentration (IC50) on ABL1 stood at 102 nM; against ABL1 (T315I), 29.1 nM.

Regarding `COc1c(-c2c[nH]c3nc(NC(=O)[C@@H]4C[C@@H]4F)ccc23)ccn2ccnc12` [Compound 114, (1S,2S)-2-fluoro-N-(3-[8-methoxyimidazo[1,2-a]pyridin-7-yl]-1H-pyrrolo[2,3-b]pyridin-6-yl)cyclopropane-1-carboxamide], the IC50 at ABL1 is 51.4 nM; on ABL1 (T315I), 150 nM.

As to `COc1c(F)cc(F)c(OC)c1-c1c[nH]c2nc(NC(=O)[C@@H]3C[C@@H]3F)ccc12` [Compound 120, (1S,2S)—N-[3-(3,5-difluoro-2,6-dimethoxyphenyl)-1H-pyrrolo[2,3-b]pyridin-6-yl]-2-fluorocyclopropane-1-carboxamide], the figures for the IC50 against ABL1 and against ABL1 (T315I) were 65.5 nM and 60.8 nM, respectively.

Consider `COc1ccccc1-c1c[nH]c2nc(NC(=O)NCC3CC3)ccc12` [Compound 122, 3-(cyclopropylmethyl)-1-[3-(2-methoxyphenyl)-1H-pyrrolo[2,3-b]pyridin-6-yl]urea], for which the figures for the IC50 on ABL1 and against ABL1 (T315I) were 73.4 nM and 19.9 nM, respectively.

On to `COc1ccccc1-c1c[nH]c2nc(NC(=O)NC3CC3)ccc12` [Compound 123, 3-cyclopropyl-1-[3-(2-methoxyphenyl)-1H-pyrrolo[2,3-b]pyridin-6-yl]urea], for which the IC50 on ABL1 was 56.5 nM; against ABL1 (T315I), 17.6 nM.

As to `COc1nc2nccn2cc1-c1c[nH]c2nc(NC(=O)[C@@H]3C[C@@H]3F)ccc12` [Compound 128, (1S,2S)-2-fluoro-N-(3-(7-methoxyimidazo[1,2-a]pyrimidin-6-yl)-1H-pyrrolo[2,3-b]pyridin-6-yl)cyclopropane-1-carboxamide], the values for the IC50 against ABL1 and at ABL1 (T315I) were 24.9 nM and 97.1 nM, respectively.

For `COc1cccc(OC)c1-c1c[nH]c2nc(NC(=O)NCC3CNC3)ccc12` [Compound 129, 1-(azetidin-3-ylmethyl)-3-(3-(2,6-dimethoxyphenyl)-1H-pyrrolo[2,3-b]pyridin-6-yl)urea], the IC50 at ABL1 is 32.9 nM; on ABL1 (T315I), 35.8 nM.

Take `COc1c(-c2c[nH]c3nc(NC(=O)[C@@H]4C[C@@H]4F)ccc23)ccc2ncnn12` [Compound 134, (1S,2S)-2-fluoro-N-(3-[5-methoxy-[1,2,4]triazolo[1,5-a]pyridin-6-yl]-1H-pyrrolo[2,3-b]pyridin-6-yl)cyclopropane-1-carboxamide]: the IC50 against ABL1 was found to be 64.8 nM; against ABL1 (T315I), 227 nM.

Turning to `COc1cc2scnc2cc1-c1c[nH]c2nc(NC(=O)NCCN3CCNCC3)ccc12` [Compound 140, 3-[3-(6-methoxy-1,3-benzothiazol-5-yl)-1H-pyrrolo[2,3-b]pyridin-6-yl]-1-[2-(piperazin-1-yl)ethyl]urea], the figures for the IC50 on ABL1 and at ABL1 (T315I) were 30.6 nM and 82.5 nM, respectively.

Take `COc1nc2[nH]ccc2cc1-c1c[nH]c2nc(NC(=O)[C@H]3C[C@@H]3F)ccc12` [Compound 141, (1R,2S)-2-fluoro-N-(6′-methoxy-1H,1′H-[3,5′-bipyrrolo[2,3-b]pyridin]-6-yl)cyclopropane-1-carboxamide]: the IC50 worked out at 45.5 nM against ABL1 and 31.2 nM at ABL1 (T315I).

(Values after patent US20240043420A1, “7-AZAINDOLE COMPOUNDS FOR INHIBITION OF BCR-ABL TYROSINE KINASES” (EnLiven Therapeutics, Inc., priority 2020, published 2024).)
